≈ marks a conversion by molar mass, not a printed value.
Assays:
[1] = tested on: Cryptococcus neoformans; test: Antifungal activity against Cryptococcus neoformans (CN-17); type: functional
[2] = tested on: Trichophyton benhamiae; test: In vitro for antifungal activity against Trichophyton mentagrophytes (A-280); type: functional, Arthroderma benhamiae
[3] = tested on: Leishmania donovani; test: An vitro anti-leishmanial activity against Leishmania donovani promastigotes (25 uM); type: functional
[4] = tested on: Sporothrix schenckii; test: In vitro for antifungal activity against Sporothrix schenck ii (SS-1); type: functional
[5] = tested on: Candida albicans; test: Antifungal activity against Candida albicans (SKF); type: functional
[6] = tested on: Aspergillus fumigatus; test: Antifungal activity against Aspergillus fumigatus (AF-27); type: functional

Row | Compound | MIC [1] | MIC [2] | MIC [4] | MIC [5] | MIC [6] | Growth inhibition [3]
1 | CCOC(=O)c1sc(SC)c(C(=O)OCC)c1O | > 100 µg/mL | > 100 µg/mL | > 100 µg/mL | > 100 µg/mL | > 100 µg/mL | 63%
2 | CCOC(=O)c1sc2cc(-c3cccc([N+](=O)[O-])c3)oc(=O)c2c1N | > 100 µg/mL | > 100 µg/mL | > 100 µg/mL | > 100 µg/mL | > 100 µg/mL | 28%
3 | CCOC(=O)c1sc2cc(-c3ccc(Cl)cc3)oc(=O)c2c1N | > 100 µg/mL | > 100 µg/mL | > 100 µg/mL | > 100 µg/mL | > 100 µg/mL | 24%
4 | CSc1cc(-c2ccc(Br)cc2)c(C(=O)O)s1 | > 100 µg/mL | 50 µg/mL (≈ 152 µM) | > 100 µg/mL | > 100 µg/mL | > 100 µg/mL | 100%
5 | CCOC(=O)c1sc2cc(-c3cccnc3)oc(=O)c2c1N | > 100 µg/mL | > 100 µg/mL | > 100 µg/mL | > 100 µg/mL | > 100 µg/mL | 15%
6 | CCOC(=O)c1sc2cc(-c3cc(F)c(Cl)cc3Cl)oc(=O)c2c1N | > 100 µg/mL | > 100 µg/mL | > 100 µg/mL | > 100 µg/mL | > 100 µg/mL | 70%
7 | CSc1cc(-c2ccc(Cl)cc2)c(C(=O)O)s1 | > 100 µg/mL | > 100 µg/mL | > 100 µg/mL | > 100 µg/mL | > 100 µg/mL | 30%
8 | CCOC(=O)c1sc2cc(-c3ccc([N+](=O)[O-])cc3)oc(=O)c2c1N | > 100 µg/mL | > 100 µg/mL | > 100 µg/mL | > 100 µg/mL | > 100 µg/mL | 20%
9 | CCOC(=O)c1sc(SC)c(C#N)c1N | > 100 µg/mL | > 100 µg/mL | > 100 µg/mL | > 100 µg/mL | > 100 µg/mL | 25%
10 | CCOC(=O)c1sc2cc(-c3ccc(F)cc3)oc(=O)c2c1N | > 100 µg/mL | > 100 µg/mL | > 100 µg/mL | > 100 µg/mL | > 100 µg/mL | 30%
11 | CSc1cc(-c2cccnc2)c(C(=O)O)s1 | > 100 µg/mL | > 100 µg/mL | > 100 µg/mL | > 100 µg/mL | > 100 µg/mL | 25%
12 | CCOC(=O)c1sc2cc(-c3ccc(Br)cc3)oc(=O)c2c1N | > 100 µg/mL | > 100 µg/mL | > 100 µg/mL | > 100 µg/mL | > 100 µg/mL | 8%
13 | CCOC(=O)c1sc2cc(-c3ccc(OC)cc3)oc(=O)c2c1N | > 100 µg/mL | > 100 µg/mL | > 100 µg/mL | > 100 µg/mL | > 100 µg/mL | 10%
14 | CCOC(=O)c1sc(SC)c(C(=O)OC)c1O | 12.5 µg/mL (≈ 45.2 µM) | 6.25 µg/mL (≈ 22.6 µM) | 12.5 µg/mL (≈ 45.2 µM) | 50 µg/mL (≈ 181 µM) | 25 µg/mL (≈ 90.5 µM) | 95%
15 | CCOC(=O)c1sc(SC)c(C#N)c1O | > 100 µg/mL | 50 µg/mL (≈ 206 µM) | > 100 µg/mL | > 100 µg/mL | > 100 µg/mL | 60%
16 | CC(=O)N1CCN(c2ccc(OC[C@H]3CO[C@](Cn4ccnc4)(c4ccc(Cl)cc4Cl)O3)cc2)CC1 [KETOCONAZOLE] | 0.3 µg/mL (≈ 0.565 µM) | 25 µg/mL (≈ 47 µM) | 0.1 µg/mL (≈ 0.188 µM) | 0.1 µg/mL (≈ 0.188 µM) | 0.7 µg/mL (≈ 1.32 µM) | –
17 | N=C(N)c1ccc(OCCCCCOc2ccc(C(=N)N)cc2)cc1 [PENTAMIDINE] | – | – | – | – | – | 100%

The next lines start with results.

Row | MIC [1] | MIC [2] | MIC [4] | MIC [5] | MIC [6] | Compound | Growth inhibition [3]
18 | > 100 µg/mL | > 100 µg/mL | > 100 µg/mL | > 100 µg/mL | > 100 µg/mL | CCOC(=O)c1sc(SC)cc1-c1ccc(Br)cc1 | 20%
19 | 50 µg/mL (≈ 179 µM) | 25 µg/mL (≈ 89.5 µM) | 25 µg/mL (≈ 89.5 µM) | 25 µg/mL (≈ 89.5 µM) | 50 µg/mL (≈ 179 µM) | CCOC(=O)c1sc(SC)cc1-c1cccnc1 | 25%
20 | > 100 µg/mL | > 100 µg/mL | > 100 µg/mL | > 100 µg/mL | > 100 µg/mL | CCOC(=O)c1sc(SC)cc1-c1ccccc1 | 30%
21 | > 100 µg/mL | > 100 µg/mL | > 100 µg/mL | > 100 µg/mL | > 100 µg/mL | CCOC(=O)c1sc(SC)cc1-c1ccc(F)cc1 | 95%
22 | > 100 µg/mL | > 100 µg/mL | > 100 µg/mL | > 100 µg/mL | > 100 µg/mL | CCOC(=O)c1sc(SC)cc1-c1ccc(C)cc1 | 100%
23 | > 100 µg/mL | > 100 µg/mL | > 100 µg/mL | > 100 µg/mL | > 100 µg/mL | CCOC(=O)c1sc(SC)cc1-c1ccc(Cl)cc1 | 55%
24 | > 100 µg/mL | > 100 µg/mL | > 100 µg/mL | > 100 µg/mL | > 100 µg/mL | CSc1cc(-c2ccc(C)cc2)c(C(=O)O)s1 | 10%
25 | > 100 µg/mL | 50 µg/mL (≈ 186 µM) | > 100 µg/mL | > 100 µg/mL | > 100 µg/mL | CSc1cc(-c2ccc(F)cc2)c(C(=O)O)s1 | 40%
